The values that follow are results of earlier work, collected in US20110184054A1, “Alpha-lipoic acid concentrate” (AQUANOVA GERMAN SOLUBILISATE TECHNOLOGIES (AGT) GmbH, priority 2004, published 2011).

Turning to `O=C(O)CCCCC1CCSS1` (stereo not drawn) [α-lipoic acid], in the series on rats, the appetite suppressing effect result was “a certain appetite suppressing effect”. Also, the “effect on problems of overweight patients” value with overweight patients was “alleviates their problems”.
